Series [1] in a line: First-order rate constant of the compound. In kind it is ADME.
Series [2] relates to CCRF-CEM. Kind of series: Compound was evaluated for the half-maximal inhibition against human CCRF-CEM lymphoblastic leukemic cell growth. In kind it is functional, cell-based.
A short description of series [3]: Km was determined. Format: ADME.
Series [4] addresses Thymidylate synthase (Mus musculus, UniProt P07607). Kind of series: Compound was evaluated for competitive inhibition of recombinant mouse thymidylate synthase.
In series [5] the test system is L1210. Kind of series: Compound was evaluated for the half-maximal inhibition against mouse L1210 leukemic cell growth. Format: functional, cell-based.
The nature of series [6]: First-order rate constant was determined. Format: ADME.

Thymidylate synthase, sequence (P07607 whole entry): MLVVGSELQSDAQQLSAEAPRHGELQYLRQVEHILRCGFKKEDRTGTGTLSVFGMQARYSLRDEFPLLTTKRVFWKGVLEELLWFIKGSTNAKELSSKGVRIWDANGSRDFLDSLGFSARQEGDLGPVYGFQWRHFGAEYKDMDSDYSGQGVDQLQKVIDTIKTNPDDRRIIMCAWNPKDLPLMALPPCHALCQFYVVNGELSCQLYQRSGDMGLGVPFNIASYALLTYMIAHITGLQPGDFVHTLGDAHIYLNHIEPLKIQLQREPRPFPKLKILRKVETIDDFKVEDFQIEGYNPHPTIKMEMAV

The compound `CN(Cc1cnc2nc(N)nc(N)c2n1)c1ccc(C(=O)N[C@@H](CCC(=O)O)C(=O)O)cc1` [METHOTREXATE] yielded a Rate constant in series [1] of 0.9.
With `Nc1nc2[nH]cc(CCc3ccc(C(=O)N[C@@H](CCC(=O)O)C(=O)O)cc3)c2c(=O)[nH]1` [PEMETREXED], the IC50 (in general, the concentration that inhibits the measured activity by half) in series [2] was 16 nM; in series [5] it was 22 nM. For the same compound, the Km – broadly, the substrate concentration at which the rate is half of its maximum – in series [3] was 800 nM. The Rate constant in series [1] was found to be 400. For the same compound, the Ki (usually the dissociation constant of the complex between target and ligand, obtained from inhibition or displacement) in series [4] amounted to 340 nM.
Turning to `Nc1nc(N)c2nc(CNc3ccc(C(=O)N[C@@H](CCC(=O)O)C(=O)O)cc3)cnc2n1` [AMINOPTERIN], the Rate constant in series [6] was found to be 10.1.
In series [1], `Nc1nc(O)c2c(n1)NCC(CCc1ccc(C(=O)NC(CCC(=O)O)C(=O)O)cc1)C2` (centres undefined) registered a Rate constant of 32. In addition, the Ki in series [4] came out at 30 nM.

These data come from ChEMBL document CHEMBL1126314, “A dideazatetrahydrofolate analogue lacking a chiral center at C-6, N-[4-[2-(2-amino-3,4-dihydro-4-oxo-7H-pyrrolo[2,3-d]pyrimidin-5-yl)ethyl]benzoyl]-L-glutamic acid, is an inhibitor of thymidylate synthase” (J Med Chem, 1992).
